Consider one compound from PMC9605374 (Marine Drugs, 2022).

Each structure is given as a SMILES string.

One assay has as its system JNK1/2 in 22Rv1 cells. As to the kind of experiment: Western blotting, MAPK activation. The class given is cell-based, human. Particulars: 22Rv1, 1 µM or 10 µM. The protocol: (§1) We examined several time points, specifically, 15 min, 2 h, and 48 h (Figure 6).
(§2) Figure 6 Validation of kinome analysis data. 22Rv1 cells were treated with 1 µM or 10 µM of NB for the indicated time. The protein expression was analyzed by Western blotting using total protein load equal to 30 µg/slot. α-Tubulin was used as a loading control.
(§3) The Western blot assay was executed as previously described: 1 × 10^6 cells were seeded in Petri dishes (ø 6 cm, 5 mL/dish) and incubated overnight. On the next day, the cells were treated with the compounds in fresh culture media (5 mL/dish) for the indicated time. Next, cells were harvested with a cell scraper and lysed in lysis buffer including protease and phosphatase inhibitors cocktail (Roche, Mannheim, Germany). Cell debris were removed from the protein lysates via centrifugation. Afterwards, the cell-free protein mixtures were separated in gradient ready-made Mini-PROTEAN® TGX Stain-Free^TM gels (Bio-Rad, Hercules, CA, USA) using SDS-PAGE (sodium dodecylsulfate polyacrylamide gel electrophoresis). Then, the proteins were blotted onto ø 0.2 µm pore PVDF membrane. The membrane was blocked and consequently treated with primary and secondary antibodies for protein detection. The signals were detected using the ECL chemiluminescence system (Thermo Scientific, Rockford, IL, USA).
Background: A western blot detects proteins with antibodies after separation by electrophoresis.

A further assay relates to ERK1/2 in 22Rv1 cells. In words: Western blotting, MAPK activation. Format: cell-based, human. The conditions noted are these: 22Rv1, 1 µM or 10 µM. As to the method: as §1, §2, §3
A further assay has as its system p38 in 22Rv1 cells. In words: Western blotting, MAPK activation. The class given is cell-based, human. Particulars: 22Rv1, 1 µM or 10 µM, 2 h. As to the method: as §1, §2, §3
The next assay deals with MRC-9. In words: MTT assay, cell viability. The class given is cell-based. The conditions noted are these: Homo sapiens, MRC9, MRC-9, 48 h of treatment, mean ± SD. From the text:
(§4) To examine the anticancer potential and selectivity of NB, we used a panel of six human prostate cancer cell lines, harboring different levels of treatment resistance to representatively reflect the heterogeneity of the disease. […] Additionally, four human noncancer cells lines were utilized in order to determine the selectivity of NB towards prostate cancer cells, i.e., prostate noncancer PNT2 and RWPE-1 cells, human embryonic kidney HEK 293T cells, and human fibroblasts MRC-9. The different cell lines were treated with NB and the cell viability was examined using MTT assay (Figure 1). The mean IC50 of NB and docetaxel (used as a reference substance) in noncancerous cell lines was divided by the mean IC50 in the prostate cancer cell lines to determine the selectivity index (SI).
(§5) The MTT assay was used to monitor the effect of the drugs on cell viability in terms of metabolic activity, as previously reported. First, preincubation of the cells in 96-well plates (6 × 10^3 cells/well in 100 μL/well) was performed overnight in the correspondent culture medium. Next, the medium was exchanged for fresh medium containing the investigated compounds or a vehicle (100 μL/well). Cells were then incubated for 48 h, unless otherwise stated. Then, 10 μL/well of 3-(4,5-dimethylthiazol-2-yl)-2,5-diphenyltetrazolium bromide reagent (MTT, 5 mg/mL) were added. After 2–4 h of additional incubation the media was removed, and the plates were dried. Finally, 50 μL/well of DMSO were added to solve the formed formazan crystals produced by the metabolic active cells and Infinite F200PRO reader (TECAN, Männedorf, Switzerland) was used to measure the cell viability. The results were proceeded with a GraphPad Prism software v.9.1.1 (GraphPad Software, San Diego, CA, USA). Cells treated with the solvent of the drugs alone were used as a control (100% alive cells). The effect of the drugs on cell viability is represented as IC50.
(Tetrazolium dyes change colour on reduction, which living cells bring about.)

The subject of another assay is PNT2. In words: MTT assay, cell viability. Format: cell-based. Particulars: Homo sapiens, PNT2, 48 h of treatment, mean ± SD.
From the text: as §4, §5

Another assay deals with LNCaP. In words: MTT assay, cell viability. Format: cell-based. The conditions noted are these: Homo sapiens, 48 h of treatment, mean ± SD.
From the text: as §4, §5

For a further assay, the system named is HEK293. As to the kind of experiment: MTT assay, cell viability. The class given is cell-based. Particulars: Homo sapiens, HEK293, 48 h of treatment, mean ± SD.
From the text: as §4, §5

For another assay, the system named is RWPE-1. As to the kind of experiment: MTT assay, cell viability. Format: cell-based. The conditions noted are these: Homo sapiens, RWPE-1, 48 h of treatment, mean ± SD.
From the text: as §4, §5

A further assay relates to 22Rv1. As to the kind of experiment: MTT assay, cell viability. Format: cell-based. The conditions noted are these: Homo sapiens, 22Rv1, 48 h of treatment, mean ± SD.
From the text: as §4, §5

A further assay has as its system DU145. In words: MTT assay, cell viability. The class given is cell-based. The conditions noted are these: Homo sapiens, DU-145, DU145, 48 h of treatment, mean ± SD.
From the text: as §4, §5

The next assay concerns VCaP. As to the kind of experiment: MTT assay, cell viability. Format: cell-based. Particulars: Homo sapiens, 48 h of treatment, mean ± SD.
From the text: as §4, §5

The next assay has as its system PC3. As to the kind of experiment: MTT assay, cell viability. Format: cell-based. The conditions noted are these: Homo sapiens, PC-3, PC3, 48 h of treatment, mean ± SD.
From the text: as §4, §5

The subject of assay [1] is various pathogenic bacteria. The arrangement: method as in PMID 26039736. The conditions noted are these: cited from earlier work.
The subject of another assay is caspase-3 in 22Rv1 cells. In words: Western blotting, caspase-3 cleavage. Particulars: 22Rv1, 48 h after drug exposure. The class given is cell-based, human. The protocol: as §1, §2, §3
In assay [2] the test system is mouse lymphoma cells L5178Y. The arrangement: method as in doi:10.1016/j.phytol.2014.12.010. The conditions noted are these: cited from earlier work.

The IC50 is the point on the concentration scale where inhibition reaches its midpoint. With `COc1ccc(C2SSC34CC5(O)C(Cl)C=CC(O)C5ON3C(=O)C2N(C)C4=O)c(O)c1OC` (stereo not shown) [NB, N-methylpretrichodermamide B], the JNK1/2 phosphorylation entry in the assay on JNK1/2 in 22Rv1 cells (2 h) is recorded as “pronounced JNK1/2 phosphorylation”; with JNK1/2 in 22Rv1 cells (48 h) it was “no phosphorylation (or even slight downregulation)”. In addition, the “activation of ERK1/2” value in the assay with ERK1/2 in 22Rv1 cells is reported as “no activation”. Further, the “activation of p38” value with p38 in 22Rv1 cells is “activation of p38”. Moreover, the IC50 with MRC-9 is 11.1 ± 4.3 µM; with PNT2, 25.1 ± 5.92 µM; with LNCaP, 12.2 ± 2.97 µM; in the assay with HEK293 it was 9.3 ± 1.57 µM; in the assay with RWPE-1, 16.4 ± 1.87 µM; in the assay on 22Rv1 it was 3.02 ± 2.5 µM. Also, the IC50 in the assay with DU145 is 13 ± 2.69 µM; with VCaP it was 0.143 ± 0.145 µM; with PC3, 6.03 ± 1.18 µM; in assay [2], 2 µM. For the same compound, in assay [1], the MIC is given as 8–32 µm/mL. The caspase-3 cleavage result in the assay on caspase-3 in 22Rv1 cells is reported as “caspase-3 cleavage that was observed”.
